Reference: PubChem BioAssay (NCI)
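Test compounds were applied to cells in 96-well plates for 48 hours at 5 doses. At the TGI there is no net growth.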

Tests used:
Assay in all cases: NCI anticancer screen, dose series, 48 h
[1] = test system: 786-0 renal
[2] = test system: A498 renal
[3] = test system: A549 NSCLC
[4] = test system: ACHN renal
[5] = test system: CAKI-1 renal
[6] = test system: CCRF-CEM leukemia
[7] = test system: COLO 205 colon
[8] = test system: DLD-1 colon
[9] = test system: DMS 114 small cell lung
[10] = test system: DMS 273 small cell lung
[11] = test system: EKVX NSCLC
[12] = test system: HCC-2998 colon
[13] = test system: HCT-116 colon
[14] = test system: HCT-15 colon
[15] = test system: HL-60(TB) leukemia
[16] = test system: HOP-18 NSCLC
[17] = test system: HOP-62 NSCLC
[18] = test system: HOP-92 NSCLC
[19] = test system: HT29 colon
[20] = test system: IGROV1 ovarian
[21] = test system: K-562 leukemia
[22] = test system: KM12 colon
[23] = test system: KM20L2 colon
[24] = test system: LOX IMVI melanoma
[25] = test system: LXFL 529 NSCLC
[26] = test system: M14 melanoma
[27] = test system: M19-MEL melanoma
[28] = test system: MALME-3M melanoma
[29] = test system: MOLT-4 leukemia
[30] = test system: NCI-H226 lung
[31] = test system: NCI-H23 lung
[32] = test system: NCI-H460 lung
[33] = test system: NCI-H522 lung
[34] = test system: OVCAR-3 ovarian
[35] = test system: OVCAR-4 ovarian
[36] = test system: OVCAR-5 ovarian
[37] = test system: OVCAR-8 ovarian
[38] = test system: RPMI-8226 leukemia
[39] = test system: RXF 393 renal
[40] = test system: RXF-631 renal
[41] = test system: SF-268 CNS
[42] = test system: SF-295 CNS
[43] = test system: SF-539 CNS
[44] = test system: SK-MEL-2 melanoma
[45] = test system: SK-MEL-28 melanoma
[46] = test system: SK-OV-3 ovarian
[47] = test system: SN12C renal
[48] = test system: SNB-19 CNS
[49] = test system: SNB-75 CNS
[50] = test system: SNB-78 CNS
[51] = test system: SR leukemia
[52] = test system: SW-620 colon
[53] = test system: TK-10 renal
[54] = test system: U251 CNS
[55] = test system: UACC-257 melanoma
[56] = test system: UACC-62 melanoma
[57] = test system: UO-31 renal
[58] = test system: XF 498 CNS
[59] = test system: SK-MEL-5 melanoma

## O=c1ncc(F)cn1C1OC(CO)C(O)C1O (configuration not stated)
[1]
  TGI: > 100 µM
[2]
  TGI: > 100 µM
[3]
  TGI: > 100 µM
[4]
  TGI: > 100 µM
[5]
  TGI: > 100 µM
[6]
  TGI: > 63.6 µM
[7]
  TGI: > 37.9 µM
[8]
  TGI: > 100 µM
[9]
  TGI: > 41.9 µM
[10]
  TGI: > 44.6 µM
[11]
  TGI: > 100 µM
[12]
  TGI: > 51.4 µM
[13]
  TGI: > 100 µM
[14]
  TGI: > 100 µM
[15]
  TGI: > 52 µM
[16]
  TGI: > 100 µM
[17]
  TGI: > 100 µM
[18]
  TGI: > 100 µM
[19]
  TGI: > 73.3 µM
[20]
  TGI: > 80 µM
[21]
  TGI: > 100 µM
[22]
  TGI: > 51.2 µM
[23]
  TGI: > 70.6 µM
[24]
  TGI: > 59.8 µM
[25]
  TGI: > 43.8 µM
[26]
  TGI: > 100 µM
[27]
  TGI: > 54 µM
[28]
  TGI: > 51.5 µM
[29]
  TGI: > 54.3 µM
[30]
  TGI: > 100 µM
[31]
  TGI: > 100 µM
[32]
  TGI: > 73 µM
[33]
  TGI: > 70.2 µM
[34]
  TGI: > 67.4 µM
[35]
  TGI: > 100 µM
[36]
  TGI: > 100 µM
[37]
  TGI: > 100 µM
[38]
  TGI: > 100 µM
[39]
  TGI: > 100 µM
[40]
  TGI: > 100 µM
[41]
  TGI: > 77.4 µM
[42]
  TGI: > 100 µM
[43]
  TGI: > 88 µM
[44]
  TGI: > 46.5 µM
[45]
  TGI: > 46.4 µM
[46]
  TGI: > 100 µM
[47]
  TGI: > 60.4 µM
[48]
  TGI: > 69 µM
[49]
  TGI: > 65.1 µM
[50]
  TGI: > 100 µM
[51]
  TGI: > 46.8 µM
[52]
  TGI: > 100 µM
[53]
  TGI: > 100 µM
[54]
  TGI: > 56.6 µM
[55]
  TGI: > 55.3 µM
[56]
  TGI: > 64.1 µM
[57]
  TGI: > 100 µM
[58]
  TGI: > 100 µM

## O=C(c1ccccc1)C1OC12C(=O)Nc1c(Cl)cc(Cl)cc12 (configuration not stated)
[1]
  TGI: > 100 µM
[2]
  TGI: > 100 µM
[3]
  TGI: > 100 µM
[4]
  TGI: > 85.1 µM
[5]
  TGI: > 78 µM
[6]
  TGI: 27.2 µM
[7]
  TGI: 41 µM
[8]
  TGI: 45.7 µM
[9]
  TGI: > 100 µM
[10]
  TGI: 47.7 µM
[11]
  TGI: > 100 µM
[12]
  TGI: > 100 µM
[13]
  TGI: > 71.9 µM
[14]
  TGI: > 70 µM
[15]
  TGI: 36 µM
[16]
  TGI: > 100 µM
[17]
  TGI: > 100 µM
[18]
  TGI: > 93.2 µM
[19]
  TGI: > 100 µM
[20]
  TGI: > 100 µM
[21]
  TGI: 46.1 µM
[22]
  TGI: > 100 µM
[23]
  TGI: > 100 µM
[24]
  TGI: > 61.7 µM
[25]
  TGI: > 53.9 µM
[26]
  TGI: > 82.4 µM
[27]
  TGI: > 77.6 µM
[28]
  TGI: > 100 µM
[29]
  TGI: 31 µM
[30]
  TGI: > 100 µM
[31]
  TGI: > 100 µM
[32]
  TGI: > 100 µM
[33]
  TGI: 34.6 µM
[34]
  TGI: > 100 µM
[35]
  TGI: > 39.9 µM
[36]
  TGI: > 100 µM
[37]
  TGI: 51.1 µM
[38]
  TGI: > 100 µM
[39]
  TGI: > 100 µM
[40]
  TGI: > 100 µM
[41]
  TGI: > 100 µM
[42]
  TGI: > 100 µM
[43]
  TGI: > 100 µM
[44]
  TGI: > 100 µM
[45]
  TGI: > 100 µM
[59]
  TGI: > 100 µM
[46]
  TGI: > 100 µM
[47]
  TGI: > 91.2 µM
[48]
  TGI: > 100 µM
[49]
  TGI: 29.5 µM
[50]
  TGI: 99.9 µM
[51]
  TGI: 31.1 µM
[52]
  TGI: 35.4 µM
[53]
  TGI: > 100 µM
[54]
  TGI: > 100 µM
[55]
  TGI: > 100 µM
[56]
  TGI: > 100 µM
[57]
  TGI: > 100 µM
[58]
  TGI: 65.1 µM
